From ChEMBL document CHEMBL4190322, “Structure-based development of novel triazoles and related thiazolotriazoles as anticancer agents and Cdc25A/B phosphatase inhibitors. Synthesis, in vitro biological evaluation, molecular docking and in silico ADME-T studies” (Eur J Med Chem, 2017)
The source made the active and inactive calls. The calls are words filed in the database; no cut-off is given here.

Key:
Assay type in all cases: functional
[1] = tested on: MDA-MB-468; assay: Growth inhibition of human MDA-MB-468 cells at 10 uM after 48 hrs by SRB assay relative to control
[2] = tested on: SNB-75; assay: Growth inhibition of human SNB75 cells at 10 uM after 48 hrs by SRB assay relative to control; conditions: SNB-75, 48 h, read-out: GI
[3] = tested on: RXF 393; assay: Growth inhibition of human RXF393 cells at 10 uM after 48 hrs by SRB assay relative to control
[4] = tested on: A549; assay: Growth inhibition of human A549 cells at 10 uM after 48 hrs by SRB assay relative to control; conditions: A549, 48 h, read-out: GI
[5] = tested on: UO-31; assay: Growth inhibition of human UO31 cells at 10 uM after 48 hrs by SRB assay relative to control; conditions: UO-31, 48 h, read-out: GI
[6] = tested on: SK-MEL-5; assay: Growth inhibition of human SK-MEL-5 cells at 10 uM after 48 hrs by SRB assay relative to control; conditions: SK-MEL-5, 48 h, read-out: GI
[7] = tested on: A498; assay: Growth inhibition of human A498 cells at 10 uM after 48 hrs by SRB assay relative to control; conditions: A498, 48 h, read-out: GI
[8] = tested on: NCI/ADR-RES; assay: Growth inhibition of human NCI/ADR-RES cells at 10 uM after 48 hrs by SRB assay relative to control; conditions: read-out: GI
[9] = tested on: CAKI-1; assay: Growth inhibition of human Caki1 cells at 10 uM after 48 hrs by SRB assay relative to control; conditions: CAKI-1, 48 h, read-out: GI
[10] = tested on: UACC-257; assay: Growth inhibition of human UACC257 cells at 10 uM after 48 hrs by SRB assay relative to control
[11] = tested on: HOP-92; assay: Growth inhibition of human HOP92 cells at 10 uM after 48 hrs by SRB assay relative to control; conditions: HOP-92, 48 h, read-out: GI
[12] = tested on: MCF7; assay: Growth inhibition of human MCF7 cells at 10 uM after 48 hrs by SRB assay relative to control
[13] = tested on: LOX IMVI; assay: Growth inhibition of human LOXIMVI cells at 10 uM after 48 hrs by SRB assay relative to control; conditions: read-out: GI
[14] = tested on: OVCAR-8; assay: Growth inhibition of human OVCAR8 cells at 10 uM after 48 hrs by SRB assay relative to control
[15] = tested on: NCI-H23; assay: Growth inhibition of human NCI-H23 cells at 10 uM after 48 hrs by SRB assay relative to control; conditions: NCI-H23, 48 h, read-out: GI
[16] = tested on: PC-3; assay: Growth inhibition of human PC3 cells at 10 uM after 48 hrs by SRB assay relative to control; conditions: PC-3, 48 h, read-out: GI
[17] = tested on: SK-OV-3; assay: Growth inhibition of human SKOV3 cells at 10 uM after 48 hrs by SRB assay relative to control; conditions: SK-OV-3, 48 h, read-out: GI
[18] = tested on: U-251; assay: Growth inhibition of human U251 cells at 10 uM after 48 hrs by SRB assay relative to control; conditions: U-251, 48 h, read-out: GI
[19] = tested on: MOLT-4; assay: Growth inhibition of human MOLT4 cells at 10 uM after 48 hrs by SRB assay relative to control; conditions: MOLT-4, 48 h, read-out: GI
[20] = tested on: NCI-H226; assay: Growth inhibition of human NCI-H226 cells at 10 uM after 48 hrs by SRB assay relative to control
[21] = tested on: SK-MEL-2; assay: Growth inhibition of human SK-MEL-2 cells at 10 uM after 48 hrs by SRB assay relative to control; conditions: SK-MEL-2, 48 h, read-out: GI
[22] = tested on: OVCAR-3; assay: Growth inhibition of human OVCAR3 cells at 10 uM after 48 hrs by SRB assay relative to control
[23] = tested on: OVCAR-4; assay: Growth inhibition of human OVCAR4 cells at 10 uM after 48 hrs by SRB assay relative to control
[24] = tested on: HL-60; assay: Growth inhibition of human HL60 cells at 10 uM after 48 hrs by SRB assay relative to control
[25] = tested on: KM12; assay: Growth inhibition of human KM12 cells at 10 uM after 48 hrs by SRB assay relative to control; conditions: KM12, 48 h, read-out: GI
[26] = tested on: 786-0; assay: Growth inhibition of human 786-0 cells at 10 uM after 48 hrs by SRB assay relative to control
[27] = tested on: CCRF-CEM; assay: Growth inhibition of human CCRF-CEM cells at 10 uM after 48 hrs by SRB assay relative to control; conditions: read-out: GI
[28] = tested on: RPMI-8226; assay: Growth inhibition of human RPMI8226 cells at 10 uM after 48 hrs by SRB assay relative to control; conditions: RPMI-8226, 48 h, read-out: GI
[29] = tested on: K562; assay: Growth inhibition of human K562 cells at 10 uM after 48 hrs by SRB assay relative to control; conditions: K562, 48 h, read-out: GI
[30] = tested on: NCI-H322M; assay: Growth inhibition of human NCI-H322M cells at 10 uM after 48 hrs by SRB assay relative to control
[31] = tested on: HT-29; assay: Growth inhibition of human HT-29 cells at 10 uM after 48 hrs by SRB assay relative to control
[32] = tested on: HOP-62; assay: Growth inhibition of human HOP62 cells at 10 uM after 48 hrs by SRB assay relative to control; conditions: HOP-62, 48 h, read-out: GI
[33] = tested on: HCT-116; assay: Growth inhibition of human HCT116 cells at 10 uM after 48 hrs by SRB assay relative to control; conditions: HCT-116, 48 h, read-out: GI
[34] = tested on: Malme-3M; assay: Growth inhibition of human MALME-3M cells at 10 uM after 48 hrs by SRB assay relative to control
[35] = tested on: Hs-578T; assay: Growth inhibition of human Hs 578T cells at 10 uM after 48 hrs by SRB assay relative to control
[36] = tested on: SF-268; assay: Growth inhibition of human SF268 cells at 10 uM after 48 hrs by SRB assay relative to control
[37] = tested on: NCI-H522; assay: Growth inhibition of human NCI-H522 cells at 10 uM after 48 hrs by SRB assay relative to control; conditions: NCI-H522, 48 h, read-out: GI
[38] = tested on: SNB-19; assay: Growth inhibition of human SNB19 cells at 10 uM after 48 hrs by SRB assay relative to control
[39] = tested on: SR; assay: Growth inhibition of human SR cells at 10 uM after 48 hrs by SRB assay relative to control; conditions: read-out: GI
[40] = tested on: UACC-62; assay: Growth inhibition of human UACC62 cells at 10 uM after 48 hrs by SRB assay relative to control

| SMILES | inhibition of growth at 10 µM [2] [%] | growth inhibition (GI) [3] | inhibition of growth at 10 µM [4] [%] | inhibition of growth at 10 µM [5] [%] | inhibition of growth at 10 µM [6] [%] | inhibition of growth at 10 µM [7] [%] | inhibition of growth at 10 µM [8] [%] | inhibition of growth at 10 µM [9] [%] | growth inhibition (GI) [10] | inhibition of growth at 10 µM [11] [%] | inhibition of growth at 10 µM [13] [%] | growth inhibition (GI) [14] | inhibition of growth at 10 µM [15] [%] | inhibition of growth at 10 µM [16] [%] | inhibition of growth at 10 µM [17] [%] | inhibition of growth at 10 µM [18] [%] | inhibition of growth at 10 µM [19] [%] | inhibition of growth at 10 µM [21] [%] | growth inhibition (GI) [24] | inhibition of growth at 10 µM [25] [%] | also measured |
| --- | --- | --- | --- | --- | --- | --- | --- | --- | --- | --- | --- | --- | --- | --- | --- | --- | --- | --- | --- | --- | --- |
| CCSc1nnc(Cc2ccc(OC)cc2)n1-c1ccc(C)cc1 | 4 | inactive | 3.38 | 14.2 | 2 | 6.56 | 10.1 | 4.82 | inactive | 31.6 | 3.04 | inactive | 4.3 | 14.3 | 6.45 | 1.35 | 17.7 | 1.9 | inactive | 6.34 | inhibition of growth at 10 µM ([1]; MDA-MB-468, 48 h, read-out: GI): 2.5%; growth inhibition (GI) [12]: inactive; growth inhibition (GI) [20]: inactive; growth inhibition (GI) [22]: inactive; growth inhibition (GI) [23]: inactive; growth inhibition (GI) [26]: inactive; inhibition of growth at 10 µM [27]: 16.7%; inhibition of growth at 10 µM [28]: 13.5%; inhibition of growth at 10 µM [29]: 20.2%; growth inhibition (GI) [30]: inactive; growth inhibition (GI) [31]: inactive; inhibition of growth at 10 µM [32]: 6%; inhibition of growth at 10 µM [33]: 4.52%; growth inhibition (GI) [34]: inactive; growth inhibition (GI) [35]: inactive; growth inhibition (GI) [36]: inactive; inhibition of growth at 10 µM [37]: 14.6%; growth inhibition (GI) [38]: inactive; inhibition of growth at 10 µM [39]: 8.17%; growth inhibition (GI) [40]: inactive |
| COc1ccc(Cc2nnc3sc(SCC(=O)c4ccc(Cl)cc4)nn23)cc1 | 21.8 | inactive | 1.3 | 22.3 | 2.05 | 35.4 | 5.12 | 17.5 | inactive | 32 | 9 | inactive | 10.7 | 25.8 | 11.2 | 8.78 | 7.83 | 10 | inactive | 5.4 | growth inhibition (GI) [1]: inactive; inhibition of growth at 10 µM ([12]; MCF7, 48 h, read-out: GI): 6.24%; inhibition of growth at 10 µM ([20]; NCI-H226, 48 h, read-out: GI): 2%; inhibition of growth at 10 µM ([22]; OVCAR-3, 48 h, read-out: GI): 3.88%; inhibition of growth at 10 µM ([23]; OVCAR-4, 48 h, read-out: GI): 2.26%; growth inhibition (GI) [26]: inactive; inhibition of growth at 10 µM [27]: 12.2%; inhibition of growth at 10 µM [28]: 8.67%; inhibition of growth at 10 µM [29]: 10%; inhibition of growth at 10 µM ([30]; read-out: GI): 6.27%; growth inhibition (GI) [31]: inactive; inhibition of growth at 10 µM [32]: 7.5%; inhibition of growth at 10 µM [33]: 4%; growth inhibition (GI) [34]: inactive; inhibition of growth at 10 µM ([35]; read-out: GI): 2.07%; inhibition of growth at 10 µM ([36]; SF-268, 48 h, read-out: GI): 5%; inhibition of growth at 10 µM [37]: 17.7%; growth inhibition (GI) [38]: inactive; inhibition of growth at 10 µM [39]: 13.2%; inhibition of growth at 10 µM ([40]; UACC-62, 48 h, read-out: GI): 1.72% |
